Laboratory results reported in patent US20110306621A1, “ACYLGUANIDINE DERIVATIVES” (priority 2009, published 2011).

What follows are compounds tested against T1, human 5-HT5A receptor (Homo sapiens, UniProt P47898) (assay: Test on a human 5-HT5A receptor binding inhibition ([3H]5-CT)). Conditions: membrane from HEK293 cells for forced expression of human 5-HT5A receptor; Ki calculated from IC50 and Kd of [3H]5-CT (4.95 nM).
T1 construct: expressed in transfected cells; membranes used
Method: The ORF (open reading frame; protein coding region) of a human 5-HT5A receptor (Genbank AF498985) was cloned from a human hippocampus cDNA library, and then inserted into a pCR2.1 vector (Invitrogen), and Escherichia coli containing the plasmid was cultured in a large amount. Next, the full-length cDNA sequence of the human 5-HT5A receptor was analyzed, and recombined into a pcDNA3.1 vector (Invitrogen) as an expression vector and cultured in a large amount. HEK293 established cells (ATCC) derived from the human fetal kidney were seeded, the expression plasmid (1 μg) obtained above were added thereto with LIPOFECTAMINE 2000 (Invitrogen; 2 μl), the gene was transfected into HEK293 cells, and the expression cells were screened with a drug-resistant marker, Geneticin (G418 sulfate 500 μg/ml; Kanto Chemical Co., Inc.). Thus prepared recombinant cells which expressed the gene were cultured in a medium containing D-MEM (Dulbecco's modified eagle medium, Sigma), 10% FCS (Fetal calf serum: fetal bovine serum), 1% Pc./Sm (Penicillin/Streptomycin, Invitrogen), and 500 μg/ml G418 for 3 days. These experimental operations followed a manual for gene operation experiment and an instruction appended in a reagent, and the like, such as a known method (Sambrook, J. et al, Molecular Cloning-A Laboratory Manual”, Cold Spring Harabor laboratory, NY, 1989).
HEK293 cells for forced expressions of a human 5-HT5A receptor were cultured in a F500 plate, and scraped with a scraper. After centrifugation, the precipitate was collected, and an incubation buffer (50 mM Tris (HCl) (pH 7.4), 10 mM MgSO4, and 0.5 mM EDTA (ethylenediamine tetraacetic acid)) was added thereto. After homogenization, it was further centrifuged, and the incubation buffer was added to the precipitate, followed by thoroughly suspending. The operation was repeated, and protein concentration was measured, thereby completing preparation of the membrane.
A solution of the compound to be tested and 100 μM 5-CT (5-carboxamidetriptamine) in DMSO was added to a 96-well plate at 2 μl/well, suspended in an incubation buffer, and a membrane from HEK293 cells for forced expressions of a human 5-HT5A receptor prepared at 200 μg/ml was added at 100 μl/well. After incubation at room temperature for 15 minutes, a [^3H]5-CT solution (2 nM [^3H]5-CT, incubation buffer) was added thereto at 100 μl/well.
Separately, 100 μl of the solution was distributed into a liquid scintillation vial, and 2 ml of Aquasol II (registered trademark) was added thereto, followed by stirring. Then, radioactivity was measured by a liquid scintillation counter. It was incubated at 37° C. for 60 minutes. The reaction mixture was sucked into 96-well GF/C filter plate that had been pre-treated with 0.2% polyethyleneimine, and washed six times with an ice-cooled, 50 mM Tris (pH 7.5) buffer. The GF/C filter plate was dried.
Microscint TMPS (registered trademark) was added thereto at 40 μl/well. Radioactivity remaining on the GF/C filter plate was measured by a top counter.
The [^3H]5-CT binding inhibiting activity by the compound to be tested in each experiment was determined as an IC50 value with a radioactivity upon addition of DMSO alone being 0% inhibition, and a radioactivity upon addition of 1 μM 5-CT being 100% inhibition. Separately, Ki values were calculated from the Kd value of the [^3H]5-CT determined from Scatchard analysis, by the following equation.
Ki=IC50 (1+Concentraion of ligand added/Kd (4.95 nM))

T1 sequence (P47898 whole entry): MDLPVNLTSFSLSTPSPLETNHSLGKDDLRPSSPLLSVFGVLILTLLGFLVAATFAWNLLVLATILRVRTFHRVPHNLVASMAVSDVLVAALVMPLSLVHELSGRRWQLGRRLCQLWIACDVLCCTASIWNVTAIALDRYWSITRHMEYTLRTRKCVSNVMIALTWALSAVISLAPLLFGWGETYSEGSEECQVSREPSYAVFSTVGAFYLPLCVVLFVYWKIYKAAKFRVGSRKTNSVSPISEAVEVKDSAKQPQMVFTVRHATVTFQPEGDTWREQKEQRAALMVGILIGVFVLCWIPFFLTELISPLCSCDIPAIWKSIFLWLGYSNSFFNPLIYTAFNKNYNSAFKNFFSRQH

SMILES	Ki
NC(N)=NC(=O)c1ccc2cccc(-c3sccc3Cl)c2c1 [Example 49]	0.3 to 3 nM
N#Cc1ccc(-c2cccc3ccc(C(=O)N=C(N)N)cc23)cc1 [Example 2]	0.3 to 3 nM
NC(N)=NC(=O)c1ccc2cccc(-c3ccccc3-c3ccccc3)c2c1 [Example 101]	30 to 300 nM
NC(N)=NC(=O)c1ccc2cccc(-c3ccccc3Cl)c2c1 [Example 7]	0.3 to 3 nM
NC(N)=NC(=O)c1ccc2cccc(-c3ccnc(F)c3)c2c1 [Example 52]	3 to 30 nM
CCOc1ncc(Cl)c(-c2cccc3ccc(C(=O)N=C(N)N)cc23)c1F [Example 66]	0.3 to 3 nM
NC(N)=NC(=O)c1ccc2cccc(-c3cc(F)ccc3Cl)c2c1 [Example 78]	0.3 to 3 nM
COc1ccncc1-c1cccc2ccc(C(=O)N=C(N)N)cc12 [Example 98]	30 to 300 nM
N#Cc1cccc(Cl)c1-c1cccc2ccc(C(=O)N=C(N)N)cc12 [Example 164]	3 to 30 nM
NC(N)=NC(=O)c1ccc2cccc(-c3ccc(Cl)cc3F)c2c1 [Example 59]	0.3 to 3 nM
NC(N)=NC(=O)c1ccc2cccc(-c3c(F)ccc(O)c3F)c2c1 [Example 118]	0.3 to 3 nM
NC(N)=NC(=O)c1ccc2cccc(C3CC3)c2c1 [Example 103]	3 to 30 nM
NC(N)=NC(=O)c1ccc2cccc(-c3cccc(F)c3Cl)c2c1 [Example 77]	0.3 to 3 nM
COc1cc(F)c(-c2cccc3ccc(C(=O)N=C(N)N)cc23)c(F)c1 [Example 83]	0.3 to 3 nM
COc1cccc(C#N)c1-c1cccc2ccc(C(=O)N=C(N)N)cc12 [Example 30]	3 to 30 nM
NC(N)=NC(=O)c1ccc2ccc(F)c(-c3ccccc3O)c2c1 [Example 161]	0.3 to 3 nM
NC(N)=NC(=O)c1ccc2cccc(-c3ccc(Cl)nc3)c2c1 [Example 54]	3 to 30 nM
Cc1cc(-c2cccc3ccc(C(=O)N=C(N)N)cc23)ccn1 [Example 141]	3 to 30 nM
NC(N)=NC(=O)c1ccc2cccc(-c3cc(F)ncc3Cl)c2c1 [Example 65]	3 to 30 nM
NC(N)=NC(=O)c1ccc2cccc(-c3cccc(C(F)(F)F)n3)c2c1 [Example 154]	3 to 30 nM
N#Cc1ncccc1-c1cccc2ccc(C(=O)N=C(N)N)cc12 [Example 56]	3 to 30 nM
CCOc1nccc(-c2cccc3ccc(C(=O)N=C(N)N)cc23)c1C#N [Example 64]	3 to 30 nM
NC(N)=NC(=O)c1ccc2cccc(-c3c(F)cccc3C3CC3)c2c1 [Example 191]	0.3 to 3 nM
NC(N)=NC(=O)c1ccc2cccc(-c3ccc(C(F)(F)F)cn3)c2c1 [Example 189]	3 to 30 nM

SMILES	Ki
NC(N)=NC(=O)c1ccc2cccc(-c3cc(C4CC4)ncc3F)c2c1 [Example 199]	3 to 30 nM
NC(N)=NC(=O)c1ccc2cccc(-c3ccc(F)nc3)c2c1 [Example 23]	3 to 30 nM
NC(N)=NC(=O)c1ccc2ccc(F)c(-c3ccncc3Cl)c2c1 [Example 160]	0.3 to 3 nM
NC(N)=NC(=O)c1ccc2cccc(-c3ccc(F)cn3)c2c1 [Example 134]	3 to 30 nM
NC(N)=NC(=O)c1ccc2cccc(-c3ncccc3F)c2c1 [Example 135]	3 to 30 nM
NC(N)=NC(=O)c1ccc2cccc(-c3c(F)cccc3F)c2c1 [Example 36]	0.3 to 3 nM
NC(N)=NC(=O)c1ccc2ccc(Cl)c(-c3ccncc3F)c2c1 [Example 156]	0.3 to 3 nM
NC(N)=NC(=O)c1ccc2cccc(-c3cncc(F)c3)c2c1 [Example 55]	3 to 30 nM
NC(N)=NC(=O)c1ccc2cccc(-c3ccccc3O)c2c1 [Example 13]	0.3 to 3 nM
Cc1ccc(-c2cccc3ccc(C(=O)N=C(N)N)cc23)c(F)n1 [Example 86]	3 to 30 nM
NC(N)=NC(=O)c1ccc2cccc(-c3c(O)cc(F)cc3F)c2c1 [Example 131]	0.3 to 3 nM
Cn1ncc(Cl)c1-c1cccc2ccc(C(=O)N=C(N)N)cc12 [Example 91]	3 to 30 nM
NC(N)=NC(=O)c1ccc2c(F)ccc(-c3c(F)cccc3F)c2c1 [Example 175]	0.3 to 3 nM
NC(N)=NC(=O)c1ccc2cccc(-c3ccnc4ccccc34)c2c1 [Example 129]	0.3 to 3 nM
NC(N)=NC(=O)c1ccc2cccc(-c3cccc(Cl)c3Cl)c2c1 [Example 75]	0.3 to 3 nM
NC(N)=NC(=O)c1ccc2cccc(-c3cccc4ccccc34)c2c1 [Example 102]	3 to 30 nM
NC(N)=NC(=O)c1ccc2cccc(-c3cccnc3F)c2c1 [Example 62]	0.3 to 3 nM
NC(N)=NC(=O)c1ccc2cccc(-c3c(F)cc(F)c(O)c3F)c2c1 [Example 143]	0.3 to 3 nM
COc1cc(C#N)ccc1-c1cccc2ccc(C(=O)N=C(N)N)cc12 [Example 3]	0.3 to 3 nM
COc1cccc(-c2cccc3ccc(C(=O)N=C(N)N)cc23)n1 [Example 159]	3 to 30 nM
NC(N)=NC(=O)c1ccc2cccc(-c3ccsc3)c2c1 [Example 47]	0.3 to 3 nM
NC(N)=NC(=O)c1ccc2cccc(-c3ccccc3F)c2c1 [Example 6]	0.3 to 3 nM
NC(N)=NC(=O)c1ccc2cccc(-c3cncs3)c2c1 [Example 182]	3 to 30 nM
NC(N)=NC(=O)c1ccc2cccc(-c3ccccc3OC(F)F)c2c1 [Example 93]	3 to 30 nM

SMILES	Ki
NC(N)=NC(=O)c1ccc2cccc(-c3c(F)cc(CO)cc3F)c2c1 [Example 121]	0.3 to 3 nM
NC(N)=NC(=O)c1ccc2cccc(-c3ncccc3C(F)(F)F)c2c1 [Example 168]	30 to 300 nM
NC(N)=NC(=O)c1ccc2cccc(-c3ccnc(C4CC4)c3F)c2c1 [Example 198]	0.3 to 3 nM
NC(N)=NC(=O)c1ccc2cccc(-c3cccc4cnccc34)c2c1 [Example 128]	0.3 to 3 nM
COc1ccc(F)c(-c2cccc3ccc(C(=O)N=C(N)N)cc23)c1 [Example 41]	3 to 30 nM
N#Cc1cc(-c2cccc3ccc(C(=O)N=C(N)N)cc23)ccn1 [Example 170]	3 to 30 nM
COc1cccc(Cl)c1-c1cccc2ccc(C(=O)N=C(N)N)cc12 [Example 32]	0.3 to 3 nM
NC(N)=NC(=O)c1ccc2cccc(-c3ccncc3F)c2c1 [Example 25]	0.3 to 3 nM
NC(N)=NC(=O)c1ccc2cccc(-c3cccc(Cl)c3O)c2c1 [Example 178]	0.3 to 3 nM
NC(N)=NC(=O)c1ccc2cccc(-c3ccc(Cl)nc3Cl)c2c1 [Example 37]	3 to 30 nM
NC(N)=NC(=O)c1ccc2cccc(-c3cc(C(F)(F)F)ccn3)c2c1 [Example 176]	30 to 300 nM
N#Cc1cc(F)cc(F)c1-c1cccc2ccc(C(=O)N=C(N)N)cc12 [Example 149]	0.3 to 3 nM
NC(N)=NC(=O)c1ccc2cccc(-c3c[nH]c4ccccc34)c2c1 [Example 173]	3 to 30 nM
COc1cc(C#N)ccc1-c1ccc(F)c2ccc(C(=O)N=C(N)N)cc12 [Example 188]	0.3 to 3 nM
Cc1nc(-c2ccc(-c3cccc4ccc(C(=O)N=C(N)N)cc34)cc2)no1 [Example 137]	3 to 30 nM
NC(N)=NC(=O)c1ccc2cccc(-c3nccc4ccccc34)c2c1 [Example 165]	3 to 30 nM
NC(N)=NC(=O)c1ccc2cccc(-c3cccc4c3OCO4)c2c1 [Example 92]	0.3 to 3 nM
NC(N)=NC(=O)c1ccc2cccc(-c3cccc4ncccc34)c2c1 [Example 109]	0.3 to 3 nM
COc1ccc(-c2cccc3ccc(C(=O)N=C(N)N)cc23)c(OC)c1 [Example 5]	0.3 to 3 nM
N#Cc1cc(F)c(-c2cccc3ccc(C(=O)N=C(N)N)cc23)c(F)c1 [Example 155]	0.3 to 3 nM
NC(N)=NC(=O)c1ccc2cccc(-c3cccc4cccnc34)c2c1 [Example 123]	3 to 30 nM
Cc1ccc(-c2cccc3ccc(C(=O)N=C(N)N)cc23)cn1 [Example 24]	3 to 30 nM
COc1cccnc1-c1cccc2ccc(C(=O)N=C(N)N)cc12 [Example 195]	30 to 300 nM
NC(N)=NC(=O)c1ccc2cccc(-c3ccc(Cl)cn3)c2c1 [Example 153]	3 to 30 nM
